The values that follow come from patent US20090264650A1, “Prophylactic/Therapeutic Agent for Diabetes” (priority 2005, published 2009).

The experiment deals with T1, 11βHSD1 (Homo sapiens, UniProt P28845).
T1 construct: made in house; host or cells: Sf-21 insect cells infected with recombinant baculovirus BAC-HHSD1 (pFASTBAC1-derived pFB-hHSD1); microsome fraction
The experiment can be described thus: Determination of 11βHSD1 inhibitory activity (microsome fraction, cortisone to cortisole, competitive ELISA). It is filed as biochemical. To be noted: microsome fraction of Reference Example 2a; 500 nM cortisone, 400 μM NADPH substrate solution; room temperature 60 min. On the procedure:
The enzyme reaction was performed in a polypropylene 96-well plate (Corning). The microsome fraction obtained in Reference Example 2a was diluted with a buffer (30 mM Tris-HCl, 1 mM EDTA, 0.1% BSA, pH 7.2) to a concentration of 100 μg/ml. A solution (2.5 μl) of the test compound in dimethyl sulfoxide was added to the obtained diluted solution (22.5 μl) and the mixture was incubated at room temperature for 5 min. A substrate solution (500 nM cortisone, 400 μM NADPH) (25 μl) was added to the obtained suspension, allowed to react at room temperature for 60 min and the reaction was quenched by the addition of 2 mM 18-β-glycyrrhetinic acid (Sigma Ltd.) solution (5 μl). The produced cortisole was quantified by the following competitive ELISA.
Anti-mouse IgG antibody (Chemicon) was suspended in 100 mM sodium phosphate buffer (pH 9.0) to a concentration of 5 μg/ml. The obtained suspension (100 μl) was added to a 96-well black plate (Maxisorp, Nunc), and incubated overnight at 4° C. to immobilize a first antibody. The plate was washed with PBS containing 0.05% Tween20 (Bio-Rad), 30% block ace (Yukijirushi) ([…]) diluted with PBS was added. After blocking at room temperature for 1 hr or more, the plate was washed with PBS containing 0.05% Tween20. Anti-cortisole antibody (assay design) (100 μl) diluted 4-fold with a buffer (30 mM Tris-HCl, 1 mM EDTA, pH 7.2) was added to the plate, and the plate was incubated at room temperature for 90 min. The plate was washed 4 times with PBS containing 0.05% Tween20, the enzyme reaction mixture (25 μl) and alkaline phosphatase conjugated cortisole (assay design) (25 μl) were added, and the plate was incubated at room temperature for 120 min. The plate was washed 4 times with PBS containing 0.05% Tween20, a luminescence substrate for alkaline phosphatase, Immun star (Enhancer plus, Bio-Rad) (50 μl) was added. The plate was incubated at room temperature for 10 min and the level of luminescence was measured by Arvo malfi label counter (Wallac). The concentration (IC50 value) of the test compound necessary for inhibiting the 11βHSD1 activity by 50% was calculated by PRISM2.01 (Graphpad Software).
For orientation: In an ELISA, binding on a coated surface is turned into a signal by an enzyme label.

Each structure is given as a SMILES string.

One may read the IC50 as the midpoint of a concentration-inhibition curve.

T1 sequence (P28845 whole entry): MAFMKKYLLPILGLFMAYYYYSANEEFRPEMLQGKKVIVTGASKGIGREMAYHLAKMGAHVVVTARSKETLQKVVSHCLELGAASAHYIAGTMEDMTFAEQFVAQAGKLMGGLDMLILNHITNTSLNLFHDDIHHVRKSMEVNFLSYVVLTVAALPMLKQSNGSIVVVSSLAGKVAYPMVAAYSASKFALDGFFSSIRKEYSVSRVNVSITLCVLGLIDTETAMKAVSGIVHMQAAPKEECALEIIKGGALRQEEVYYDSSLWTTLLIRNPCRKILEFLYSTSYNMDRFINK

For the molecule `Cc1ccccc1CN1CCCC(Cc2c(Cl)cccc2Cl)C1=O` (stereo not shown) [Example 5C, 3-(2,6-dichlorobenzyl)-1-(2-methylbenzyl)piperidin-2-one], the IC50 was found to be 110 nM.

For the molecule `CC1(O)CCC(N2CCC(Cc3c(Cl)cccc3Cl)C2=O)CC1` (single isomer, unassigned) [Example 38A, 3-(2,6-dichlorobenzyl)-1-(4-hydroxy-4-methylcyclohexyl)pyrrolidin-2-one], the IC50 was 26 nM.

Regarding `CC1(O)CCC(N2CCC(Cc3ccc(OCc4nc(-c5ccc(F)cc5)no4)cc3Cl)C2=O)CC1` (stereo not shown) [Example 619A, 3-(2-chloro-4-{[3-(4-fluorophenyl)-1,2,4-oxadiazol-5-yl]methoxy}benzyl)-1-(4-hydroxy-4-methylcyclohexyl)pyrrolidin-2-one], the IC50 came to 46 nM.

In turn, `CC1(O)CCC(N2CCC(Cc3ccc(OCC(=O)NCc4ccc(C(F)(F)F)cc4)cc3Cl)C2=O)CC1` (single isomer, unassigned) [Example 603A, 2-(3-chloro-4-{[1-(4-hydroxy-4-methylcyclohexyl)-2-oxopyrrolidin-3-yl]methyl}phenoxy)-N-[4-(trifluoromethyl)benzyl]acetamide] had an IC50 of 98 nM.

The molecule `CC1(O)CCC(N2CCC(Cc3ccc(Cl)cc3Cl)C2=O)CC1` (single isomer, unassigned) [Example 412A, 3-(2,4-dichlorobenzyl)-1-(4-hydroxy-4-methylcyclohexyl)pyrrolidin-2-one] showed an IC50 of 430 nM.

In turn, `CC1(O)CCC(N2CCC(Cc3ccc(OCC(=O)NCc4ccc(C(F)(F)F)cc4)cc3Cl)C2=O)CC1` (single isomer, unassigned) [Example 602A, 2-(3-chloro-4-{[1-(4-hydroxy-4-methylcyclohexyl)-2-oxopyrrolidin-3-yl]methyl}phenoxy)-N-[4-(trifluoromethyl)benzyl]acetamide] displayed an IC50 of 26 nM.

The molecule `CN(Cc1c(Cl)cccc1Cl)C1CCN(C2CCCCC2)C1=O` (stereo not shown) [Example 94A, 1-cyclohexyl-3-[N-(2,6-dichlorobenzyl)N-methylamino]pyrrolidin-2-one] registered an IC50 of 85 nM.

In the case of `Cc1ccccc1CN1C(=O)N(Cc2c(Cl)cccc2Cl)CC1(C)O` (stereo not shown) [Example 32B, 1-(2,6-dichlorobenzyl)-4-hydroxy-4-methyl-3-(2-methylbenzyl)imidazolidin-2-one], the IC50 is 53 nM.

In the case of `CC1(O)CCC(N2CCC(Cc3ccc(Cl)cc3Cl)C2=O)CC1` (single isomer, unassigned) [Example 413A, 3-(2,4-dichlorobenzyl)-1-(4-hydroxy-4-methylcyclohexyl)pyrrolidin-2-one], the IC50 is 29 nM.

Take `O=C1N(Cc2ccc(C(F)(F)F)cc2)CCN1c1ccc(CC2CCN(C3C4CC5CC3CC(O)(C5)C4)C2=O)c(Cl)c1` (stereo not shown) [Example 510A, 1-(3-chloro-4-{[1-(5-hydroxy-2-adamantyl)-2-oxopyrrolidin-3-yl]methyl}phenyl)-3-[4-(trifluoromethyl)benzyl]imidazolidin-2-one]: the IC50 was 9.9 nM.

Regarding `O=C(Nc1ccc(CO)cc1)Nc1ccc(CC2CCN(C3C4CC5CC3CC(O)(C5)C4)C2=O)c(Cl)c1` (stereo not shown) [Example 468A, N-(3-chloro-4-{[1-(5-hydroxy-2-adamantyl)-2-oxopyrrolidin-3-yl]methyl}phenyl)-N′-[4-(hydroxymethyl)phenyl]urea], the IC50 stood at 19 nM.

The molecule `CC1(O)CCC(N2CCC(Cc3ccc(-c4cccc(CO)c4)cc3Cl)C2=O)CC1` (stereo not shown) [Example 654A, 3-{[3-chloro-3′-(hydroxymethyl)biphenyl-4-yl]methyl}-1-(4-hydroxy-4-methylcyclohexyl)pyrrolidin-2-one] yielded an IC50 of 150 nM.

`CS(=O)(=O)Nc1cccc(-c2ccc(CC3CCN(C4C5CC6CC4CC(O)(C6)C5)C3=O)c(Cl)c2)c1` (stereo not shown) [Example 470A, N-(3′-chloro-4′-{[1-(5-hydroxy-2-adamantyl)-2-oxopyrrolidin-3-yl]methyl}biphenyl-3-yl)methanesulfonamide] returned an IC50 of 37 nM.

On to `Cc1ccccc1CN1CCCN(Cc2c(Cl)cccc2Cl)C1=O` [Example 2D, 1-(2,6-dichlorobenzyl)-3-(2-methylbenzyl)tetrahydropyrimidin-2(1H)-one], for which the IC50 amounted to 130 nM.

`O=C1C(Cc2c(Cl)cccc2Cl)CCN1C1CCCCC1` (stereo not shown) [Example 9A, 1-cyclohexyl-3-(2,6-dichlorobenzyl)pyrrolidin-2-one] returned an IC50 of 7.9 nM.

`COc1ccccc1CC1CCN(C2CCc3ccccc32)C1=O` (single isomer, unassigned) [Example 66A, 1-(2,3-dihydro-1H-inden-1-yl)-3-(2-methoxybenzyl)pyrrolidin-2-one]: the IC50 is 56 nM.
